Key:
HeLa BRCA1 SX = experiment: Cell survival, trypan blue counting; type: cell-based, human; details: 4.80 μM of AsiDNA and/or 0.1 μM of Ola; day 6 after treatment
Experimental: (§5) Cells were grown according to the supplier's instructions. Cell lines were maintained at 37° C. in a humidified atmosphere at 5% CO2.
(§6) AsiDNA or PARPi cytotoxicity was measured by relative survival and cell death quantification. Adherent cells were seeded in 24-well culture plates at appropriate densities and incubated 24 hours at 37° C. before AsiDNA and/or PARPi addition. Cells were harvested day 6aftertreatment, stained with 0.4% trypan blue (Sigma Aldrich, Saint-Louis, USA) and counted with a Burker chamber. Cell survival was calculated as ratio of living treated cells to living mock-treated cells. Cell death was calculated as the number of dead cells on the total number of counted cells. Additivity of the toxicity was calculated by the product of cell survivals to AsiDNA and cell survivals to PARPi.

SK28 Lsh CTL = experiment: Cell survival, trypan blue counting; type: cell-based, human; details: 4.80 μM of AsiDNA and/or 0.1 μM of Ola; day 6 after treatment
Hut78 = experiment: Cell survival, trypan blue counting; type: cell-based, human; details: 4.80 μM of AsiDNA and/or 0.1 μM of Ola; day 6 after treatment
Experimental: as §5, §6

IM9 = experiment: Cell survival, trypan blue counting; type: cell-based, human; details: 4.80 μM of AsiDNA and/or 0.1 μM of Ola; day 6 after treatment
Experimental: as §5, §6

Jurkat = experiment: Cell survival, trypan blue counting; type: cell-based, human; details: 4.80 μM of AsiDNA and/or 0.1 μM of Ola; day 6 after treatment
Experimental: as §5, §6

BC173 = experiment: Cell survival, trypan blue counting; type: cell-based, human
Experimental: (§1) Cells were grown according to the supplier's instructions.

HCC1187 = experiment: Cell survival, trypan blue counting; type: cell-based, human
Experimental: as §1

MDAMB231 = experiment: Cell survival, trypan blue counting; type: cell-based, human
Experimental: as §1

MDAMB468 = experiment: Cell survival, trypan blue counting; type: cell-based, human
Experimental: as §1

HCC38 = experiment: Cell survival, trypan blue counting; type: cell-based, human; details: 4.80 μM of AsiDNA and/or 0.1 μM of Ola; day 6 after treatment
Experimental: as §5, §6

XRCC1 = experiment: XRCC1-eYFP recruitment to laser damage sites in MDAMB231 cells; type: cell-based, human; details: MDAMB231, 24 h of treatment with Ola (1 μM) and/or AsiDNA (16 μM)
Experimental: FIG. 8: Olaparib inhibits XRCC1 recruitment to damage sites independently of AsiDNA. (A) Representative images of XRCC1-eYFP recruitment 40 secondes after laser damage and (B) kinetic of XRCC1-eYFP recruitment in MDAMB231 cells after 24 h of treatment with Ola (1 μM) and/or AsiDNA (16 μM). ns: not significant; ****: p<0.0001. These experiments were performed with a Leica SP5 confocal system, attached to a DMI6000 stand using a 63/1.4 objective, under a controlled environment (37° C., 5% CO2). All records were made using the appropriate sampling frequency (512_512 images, line average of four and zooming set to eight) and an argon laser line (514 nm for YFP) adapted to the fluorescent protein of interest. In the first step, two images were acquired within a period of 2-3 s at a laser energy setting sufficiently low not to induce any photodynamic damage. The 405-nm laser line (diode) was then set to maximum output for 100 ms and focused onto a single spot of constant size (176 nm) within the nucleus to cause a point of photo damage with a reproducible amount of energy. Recruitment of the protein of interest was then monitored by fluorescence using the same setting as for the pre-damage sequence. Laser damage was induced 24 h after treatment with AsiDNA (16 μM), olaparib (1 μM) or both. Images were captured at 2 s intervals for the following 52 s. […]

MCF10A non-tumor cells = experiment: Alkaline comet assay; type: cell-based, human; details: 24 h; olaparib (1 μM) alone or with AsiDNA (16 μM)
Experimental: (§2) To dissect this cytotoxic synergy, the inventors examined the effect of AsiDNA, Ola or both on DNA repair activities. […] Pan-nuclear phosphorylation of H2AX is thought to be involved in the inhibition of HR and NHEJ repair enzyme recruitment by AsiDNA. […] This increase could account for the efficient toxicity of the combination in MDAMB231 cells.
(§3) Cells treated with AsiDNA (16 μM), olaparib (1 μM) or both were suspended in 0.5% low melting point agarose in DMEM and transferred onto a frosted glass microscope slide precoated with a layer of 0.5% normal melting point agarose. Slides were immersed in lysis solution [2.5 mol/L NaCl, 100 mmol/L EDTA, 10 mmol/L Tris, 1% sodium lauryl sarcosinate, 10% DMSO, 1% Triton X-100 (pH 10)] at 4jC for 1 h, placed in a electrophoresis tank containing 0.3 mol/L NaOH (pH 13) and 1 mmol/L EDTA for 40 min, electrophoresis for 25 min at 25 V (300 mA), washed with neutral buffer [400 mmol/L Tris-HCl (pH 7.5)], and stained with 20 Ag/mL ethidium bromide. The variables of the “comets” were quantified with the use of the software Comet Assay 2 (Perceptive Instrument). Triplicate slides were processed for each experimental point. The tail moment is defined as the product of the percentage of DNA in the tail and the displacement between the head and the tail of the comet.

MDAMB231 tumor cells = experiment: Alkaline comet assay; type: cell-based, human; details: 24 h; AsiDNA (16 μM) or olaparib (1 μM) alone
Experimental: as §2, §3

3 BC cell lines = experiment: Combined treatment survival in BC cell lines (FIG. 6, 7, 12); type: cell-based, human; details: FIG. 7
Experimental: (§4) Efficacy of AsiDNA (4. 8 μM), olaparib (0, 0.1 and 1 μM) or both was monitored 6 days after treatment by cell counting after trypan blue labeling. (A) Percentage of living cells relative to non-treated condition (NT). (B) Percentage of dead cells. Data are expressed as mean+Sc.D. of at least 2 independent experiments. Dotted lines indicate the calculated cell survivals if additivity between AsiDNA and olaparib.
Efficacy of AsiDNA (4.8 μM), veliparib (0, 10 and 50 μM) or both was monitored 6 days after treatment by trypan blue staining. (A) Percentage of living cells relative to non-treated condition (NT). (B) Percentage of dead cells. Dotted lines indicate the calculated cell survivals if additivity between AsiDNA and veliparib.
The inventors monitored cell survival to combined treatment of 3 BC and 2 non-tumor cell lines with different sensitivities to Ola and AsiDNA alone (FIG. 6; Table 1). […] However, the combination remained more efficient or at least equal to the expected additive effect at all the tested doses. […] In contrast, the normal cells were insensitive to both, the combined and the single treatments with AsiDNA and Ola (FIG. 6; Table 1).

2 non-tumor cell lines = experiment: Combined treatment survival in non-tumor cell lines (FIG. 6, 12); type: cell-based, human; details: AsiDNA 4.8 μM, olaparib 0.1 and 1 μM; 6 days
Experimental: as §4
(A) Percentage of living cells relative to non-treated condition (NT). (B) Percentage of dead cells. Dotted lines indicate the calculated cell survivals if additivity between AsiDNA and veliparib.
The inventors monitored cell survival to combined treatment of 3 BC and 2 non-tumor cell lines with different sensitivities to Ola and AsiDNA alone (FIG. 6; Table 1).

[1] = test system: mutants with one repair defect (PARP1, BRCA1, BRCA2, Ku70, DNA-PKcs); experiment: Single treatments in isogenic pairs with DNA repair mutants; details: 4.80 μM AsiDNA or 0.1 μM Ola
Experimental: To determine if the efficacy of the combination of AsiDNA with Ola was not restricted to BC, the inventors analyzed the sensitivity of different cancer cell lines including glioblastoma, cervical cancer, colon cancer, blood cancer and melanoma.
as §5, §6

[2] = 0.1 μM Ola, 4.8 μM AsiDNA, sensitive = difference in % dead cells higher than two-fold
[3] = 4.80 μM of AsiDNA and/or 0.1 μM of Ola, day 6 after treatment

**Q.** For `O=C(c1cc(Cc2n[nH]c(=O)c3ccccc23)ccc1F)N1CCN(C(=O)C2CC2)CC1` [Olaparib, 4-[(3-[(4-cyclopropylcarbonyl)piperazin-4-yl]carbonyl)-4-fluorophenyl]methyl(2H)-phthalazin-1-one], which “Survival (%/NT)” value (HeLa BRCA1 SX) is on record?
**A.** The value was 71.4 %/NT.

**Q.** And the “Survival (%/NT)” value (SK28 Lsh CTL)?
**A.** The value was 80.6 %/NT.

**Q.** And the “Survival (%/NT)” value (Hut78)?
**A.** Its value is 85.8 %/NT.

**Q.** And the “Survival (%/NT)” value (IM9)?
**A.** The value was 84.6 %/NT.

**Q.** What about the “Survival (%/NT)” value (Jurkat) of the same molecule?
**A.** The value was 68.4 %/NT.

**Q.** What about the sensitivity to treatment (BC173; [2]) of the same molecule?
**A.** The sensitivity to treatment was “sensitive only to AsiDNA”.

**Q.** And the “Survival (%/NT)” value (BC173; [3])?
**A.** The value was 94.4 %/NT.

**Q.** What about the sensitivity to treatment (HCC1187; [2]) of the same molecule?
**A.** Its sensitivity to treatment is “sensitive only to Ola”.

**Q.** And the “Survival (%/NT)” value (HCC1187; [3])?
**A.** The value was 61.5 %/NT.

**Q.** What about the sensitivity to treatment (MDAMB231; [2]) of the same molecule?
**A.** The sensitivity to treatment was “resistant to both treatments”.

**Q.** What about the “Survival (%/NT)” value (MDAMB231; [3]) of the same molecule?
**A.** Its value is 90.9 %/NT.

**Q.** And the IC20 (MDAMB231; Homo sapiens, MDA-MB-231, MDAMB231, PARPi dose giving 80% survival)?
**A.** Its IC20 is 1000 nM.

**Q.** And the IC50 (MDAMB231; Homo sapiens, MDA-MB-231, MDAMB231, PARPi dose resulting in 50% survival)?
**A.** The IC50 was 3700 nM.

**Q.** What about the sensitivity to treatment (MDAMB468; [2]) of the same molecule?
**A.** Its sensitivity to treatment is “sensitive to both treatments”.

**Q.** What about the “Survival (%/NT)” value (MDAMB468; [3]) of the same molecule?
**A.** The value was 68.3 %/NT.

**Q.** And the “Survival (%/NT)” value (HCC38)?
**A.** Its value is 66.7 %/NT.

**Q.** And the XRCC1 foci recruitment (XRCC1)?
**A.** Its XRCC1 foci recruitment is “significantly delayed”.

**Q.** What about the “DNA damage (alkaline comet assay)” value (MCF10A non-tumor cells) of the same molecule?
**A.** The value was “slight increase of DNA damage”.

**Q.** What about the “DNA damage (alkaline comet assay)” value (MDAMB231 tumor cells) of the same molecule?
**A.** The value was “induced accumulation of damage”.

**Q.** And the “dose dependence of efficacy of single treatments” value (3 BC cell lines)?
**A.** Its value is “dose dependent”.

**Q.** And the “sensitivity to combined and single treatments” value (2 non-tumor cell lines)?
**A.** Its value is “insensitive”.

**Q.** What about the “cytotoxicity of single treatments to DNA repair mutants” value [1] of the same molecule?
**A.** Its value is “essentially restricted to the BRCA mutants”.
